Test results: patent US20140057895A1, “INDAZOLE- AND PYRROLOPYRIDINE-DERIVATIVE AND PHARMACEUTICAL USE THEREOF” (priority 2011, published 2014)
Where a name gives a salt, the structure may show the parent alone.

What was measured:
5-HT4 receptor [1] = target: T1, 5-HT4 receptor (Cavia porcellus, UniProt O70528); experiment: Test Example 1: Serotonin 4 (5-HT4) receptor binding assay, [3H]-GR113808, guinea pig striatum membranes (Table 96); conditions: Guinea pig 5-HT4 receptor binding assay, [3H]-GR113808, striatum membranes; mean value of each group
T1 construct: striatum was isolated which was cryopreserved at −80° C. until use; from tissue; host or cells: guinea pig (Slc-Hartley) striatum membranes
Protocol: The 5-HT4 receptor binding assay and preparations of receptor membrane preparations herein were carried out according to a method of Grossman et al. [see, British J. Pharmacol., (1993) 109, 618].
Slc-Hartley guinea pigs (body weight 300 g to 400 g) were decapitated to remove brain rapidly, and striatum was isolated which was cryopreserved at −80° C. until use. To the obtained tissues were added fifteen fold of Hepes buffer (50 mM, pH 7.4, 4° C.), and the mixture was homogenized by Teflon (trademark) homogenizer and centrifuged at 48,000×g (4° C.) for 15 minutes. To the resulting precipitate was added Hepes buffer (1 ml) to 30 mg by wet weight of tissues, and the mixture was suspended to give receptor membrane preparations.
To an assay tube were added 0.1 nM [^3H]-GR113808 {chemical name: [1-[2-(methylsulfonylamino)ethyl]-4-piperidinyl]methyl 1-methylindole-3-carboxylate}, receptor membrane preparations, and Hepes buffer (50 mM, pH 7.4, 4° C., 1 ml) containing test compounds or 30 μM serotonin; and the mixture was incubated at 37° C. for 30 minutes. On quenching the reaction, the mixture was rapidly filtered on whatman GF/B filter, which was presoaked in 0.1% polyethyleneimine for 1 hour, by using Brandel cell Harvester, and washed with ice-cooled 50 mM Tris-HCl (pH 7.7, 4 ml) three times. To the filter after filtration was added a liquid scintillator (Ecoscint), and then a radioactivity was determined by a liquid scintillation counter.
50% Inhibition concentrations (IC50) were determined from inhibition rates of test compounds to specific bindings which were obtained by subtracting nonspecific bindings from total binding amounts of [^3H]-GR113808.
(§1) In the following table, the compounds used in the test are shown in numbers which correspond to the Example numbers above where the preparations of the compounds are described.

human 5-HT4b receptor [2] = target: T2, human 5-HT4b receptor (Homo sapiens, UniProt Q13639); experiment: Test Example 2: Serotonin 4 (5-HT4) receptor agonist activity assay, cAMP HTRF in CHO cells (Table 97); type: cell-based; conditions: cAMP in CHO cells expressing human 5-HT4b receptor, mean value; for Emax: 0.25 h, intrinsic activity, maximal activity of 5-HT defined as 100%, read-out: IA (%); for EC50: concentration showing 50% of IA
T2 construct: expressed in transfected cells; host or cells: CHO cells (G418 selection)
Protocol: The cAMP measurement test used herein was carried out by using CISBIO HTRF (trademark) cAMP Hirange kit according to the manufacturer's instructions attached therewith.
CHO cells expressing human 5-HT4b receptor were incubated in Medium 1 [DMEM/1% NEAA, 1% penicillin/streptomycin (P/S), 0.2 mg/mL GENETICIN (G418), 10% FBS] at 37° C. under 5% CO2 condition. Then, the cells were put into Medium 2 (DMEM/10000 cut FBS, G-418, P/S, NEAA) for 1 to 2 hours, and collected by treating with trypsin containing EDTA. The collected cells were suspended in Assay Buffer 1 [100 mM Hanks/HEPES buffer (pH 7.4)], the suspended cells were mixed with the testing compound on 384-well plates, and the cells were incubated at 31° C. for 15 minutes. To the cells were added cAMP-cryptate solution and cAMP-d2 solution, and they were incubated at room temperature for 1 hour. Then, time-resolved fluorescence was measured by En Vision (excitation wavelength: 330 nm, fluorescence wavelength: 620/665 nm). An intrinsic activity of the compound [IA (%)] and a concentration showing 50% of IA [EC50 (nM)] were calculated from the obtained results. In particular, the intrinsic activity (IA) was calculated on the basis of the maximal activity of 5-HT (measured from 10^−11 M to 10^−7 M) defined as 100%.
as §1

5-HT4 receptor [3] = target: T1, 5-HT4 receptor; experiment: Test Example 3: Guinea pig 5-HT4 receptor binding assay, [3H]-GR113808, striatum membranes (Table 98); conditions: Guinea pig 5-HT4 receptor binding assay, [3H]-GR113808, striatum membranes; mean value of each group; read-out: IC50
Method in brief: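 Striatal membranes from Slc-Hartley guinea pigs were incubated with 0.1 nM [3H]-GR113808 and test compounds in 50 mM Hepes pH 7.4 at 37° C for 30 min; nonspecific binding was defined with 30 μM serotonin. Bound radioactivity was collected by filtration, and IC50 was derived from inhibition of specific binding.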

human 5-HT4b receptor [4] = target: T2, human 5-HT4b receptor; experiment: Test Example 4: Serotonin 4 (5-HT4) receptor agonist activity assay, cAMP HTRF in CHO cells (Table 100); type: cell-based; conditions: mean value; for Emax: CHO, 0.25 h, intrinsic activity, maximal activity of 5-HT defined as 100%, read-out: IA (%); for EC50: concentration showing 50% of IA
Method in brief: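 CHO cells expressing human 5-HT4b receptor, serum-reduced for 1–2 h, were suspended in Hanks/HEPES pH 7.4 and exposed to compound for 15 min at 31° C. cAMP detected by HTRF (cryptate/d2, 1 h RT, 620/665 nm). EC50 and intrinsic activity relative to maximal 5-HT response (10^−11 to 10^−7 M) set at 100%.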

[5] = target: T3, Human 5-HT4 receptor (5-HT4b) (Homo sapiens, UniProt Q13639); experiment: Test Example 3: Human 5-HT4 receptor binding assay, membranes of CHO-K1 cells stably expressing 5-HT4b receptors (Table 99); conditions: mean value of each group
T3 construct: expressed in transfected cells; membrane preparation
Method in brief: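 Membranes from CHO-K1 cells stably expressing 5-HT4b incubated with 0.1 nM [3H]-GR113808 in 50 mM Hepes pH 7.4, 37 °C, 30 min; nonspecific binding with 30 μM serotonin. Bound label collected by filtration and scintillation counting; IC50 from inhibition of specific binding.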

T2 sequence (Q13639 whole entry): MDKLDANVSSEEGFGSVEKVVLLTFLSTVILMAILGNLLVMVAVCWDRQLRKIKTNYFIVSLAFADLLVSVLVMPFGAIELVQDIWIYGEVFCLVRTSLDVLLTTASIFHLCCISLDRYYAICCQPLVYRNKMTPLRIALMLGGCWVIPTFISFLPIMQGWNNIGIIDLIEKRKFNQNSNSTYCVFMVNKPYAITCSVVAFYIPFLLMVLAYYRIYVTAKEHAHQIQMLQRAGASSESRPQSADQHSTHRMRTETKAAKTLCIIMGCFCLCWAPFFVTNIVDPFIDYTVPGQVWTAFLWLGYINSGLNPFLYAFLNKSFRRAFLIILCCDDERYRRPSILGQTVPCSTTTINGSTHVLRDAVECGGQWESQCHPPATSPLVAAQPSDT
T1 sequence (O70528 whole entry): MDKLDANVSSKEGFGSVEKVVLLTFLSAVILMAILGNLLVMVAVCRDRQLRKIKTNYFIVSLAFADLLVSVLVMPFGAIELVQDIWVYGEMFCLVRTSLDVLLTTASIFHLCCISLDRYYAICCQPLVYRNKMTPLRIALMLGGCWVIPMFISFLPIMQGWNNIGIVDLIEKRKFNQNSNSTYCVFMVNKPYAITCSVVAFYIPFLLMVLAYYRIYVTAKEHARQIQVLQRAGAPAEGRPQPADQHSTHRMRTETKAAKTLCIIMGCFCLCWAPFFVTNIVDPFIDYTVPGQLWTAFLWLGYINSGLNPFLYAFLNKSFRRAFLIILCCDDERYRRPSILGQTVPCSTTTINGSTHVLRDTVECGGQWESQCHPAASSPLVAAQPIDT
T3 sequence (Q13639 whole entry): as the sequence (Q13639 whole entry) above

Compound | IC50 (5-HT4 receptor [1]) [nM] | Emax (human 5-HT4b receptor [2]) [%] | EC50 (human 5-HT4b receptor [2]) [nM] | IC50 (5-HT4 receptor [3]) [nM] | Emax (human 5-HT4b receptor [4]) [%] | EC50 (human 5-HT4b receptor [4]) [nM] | IC50 [5] [nM]
CCc1nn(-c2noc(C3CCN(C(C)C)CC3)n2)c2cc(F)ccc12 [Example 143, 3-ethyl-6-fluoro-1-{5-[1-(propan-2-yl)piperidin-4-yl]-1,2,4-oxadiazol-3-yl}-1H-indazole] | < 20 | 81 | 6 |  |  |  | 
CCC(C)N1CCC(c2nc(-n3nc(C4CCC4)c4ccccc43)no2)CC1 (centres unmarked) [Example 114, 1-{5-[1-(butan-2-yl)piperidin-4-yl]-1,2,4-oxadiazol-3-yl}-3-cyclobutyl-1H-indazole trifluoroacetate] | 26.2 | 68 | 53 |  |  |  | 
CCc1nn(-c2noc(C3CCN(C[C@@H]4CCCN4C(=O)OCCF)CC3)n2)c2c(F)cccc12 [Example 182, 2-fluoroethyl (2S)-2-({4-[3-(3-ethyl-7-fluoro-1H-indazol-1-yl)-1,2,4-oxadiazol-5-yl]piperidin-1-yl}methyl)pyrrolidine-1-carboxylate] | < 20 | 38 | 4 |  |  |  | 
CCN[C@H]1C[C@@H](c2nc(-n3nc(CC)c4ccc(F)cc43)no2)C1 [Example 278, cis-N-ethyl-3-[3-(3-ethyl-6-fluoro-1H-indazol-1-yl)-1,2,4-oxadiazol-5-yl]cyclobutanamine] | < 20 |  |  |  |  |  | 
COCCCN1CCC(c2nc(-n3nc(C4CC4)c4ccccc43)no2)CC1 [Example 88, 3-cyclopropyl-1-{5-[1-(3-methoxypropyl)piperidin-4-yl]-1,2,4-oxadiazol-3-yl}-1H-indazole trifluoroacetate] | 33.5 | 37 | 16.4 |  |  |  | 
CCc1nn(-c2noc(C3CCN(CCC4CCCO4)CC3)n2)c2cc(F)ccc12 (centres unmarked) [Example 131, 3-ethyl-6-fluoro-1-(5-{1-[2-(tetrahydrofuran-2-yl)ethyl]piperidin-4-yl}-1,2,4-oxadiazol-3-yl)-1H-indazole] | < 20 | 77 | 9.3 |  |  |  | 
CCc1nn(-c2noc(C3CCN(CCCOC)CC3)n2)c2ccccc12 [Example 87, 3-ethyl-1-{5-[1-(3-methoxypropyl)piperidin-4-yl]-1,2,4-oxadiazol-3-yl}-1H-indazole trifluoroacetate] | 21 | 80 | 9.4 |  |  |  | 
CCC(C)N1CCC(c2nc(-n3nc(C4CC4)c4ccccc43)no2)CC1 (centres unmarked) [Example 102, 1-{5-[1-(butan-2-yl)piperidin-4-yl]-1,2,4-oxadiazol-3-yl}-3-cyclopropyl-1H-indazole trifluoroacetate] | < 20 | 26 | 8 |  |  |  | 
CCc1nn(-c2noc(C3CCN(C(C)CC)CC3)n2)c2ccccc12 (centres unmarked) [Example 101, 1-{5-[1-(butan-2-yl)piperidin-4-yl]-1,2,4-oxadiazol-3-yl}-3-ethyl-1H-indazole trifluoroacetate] | < 20 | 70 | 8.9 |  |  |  | 
CCc1nn(-c2noc(C3CCN(CC4CN(C(=O)COC)C4)CC3)n2)c2c(F)cccc12 [Example 224, 1-[3-({4-[3-(3-ethyl-7-fluoro-1H-indazol-1-yl)-1,2,4-oxadiazol-5-yl]piperidin-1-yl}methyl)azetidin-1-yl]-2-methoxyethanone hydrochloride] | < 20 |  |  | < 20 | 73.9 | 6.7 | 
CC(=O)N1CCC(CN[C@H]2C[C@@H](c3nc(-n4nc(C(C)C)c5cccc(F)c54)no3)C2)CC1 [Example 590, 1-(4-{[(cis-3-{3-[7-fluoro-3-(propan-2-yl)-1H-indazol-1-yl]-1,2,4-oxadiazol-5-yl}cyclobutyl)amino]methyl]piperidin-1-yl)ethanone] |  |  |  |  | 101 | 2.8 | 12.6
COCCNC1CC(c2nc(-n3nc(C(C)C)c4cccc(F)c43)no2)C1 (centres unmarked) [Example 605, 3-{3-[7-fluoro-3-(propan-2-yl)-1H-indazol-1-yl]-1,2,4-oxadiazol-5-yl}-N-(2-methoxyethyl)cyclobutanamine] |  |  |  |  | 113 | 2.3 | < 20
